Experimental data as given in patent US5236899A (Merck & Co., Inc., priority 1991, dated 1993).

How the values were obtained:
[1] = Nephrotoxicity in an in vivo mouse model; details: result in words
[2] = system: MDR CHO cells (multidrug-resistant); test: Doxorubicin growth inhibition, methylene blue staining method, multidrug-resistant cells; type: cell-based, Chinese hamster; details: Cricetulus griseus, doxorubicin only, about 72 hours continuous exposure
Text: Multidrug-resistant cells lines are easily obtainable for in vitro determination of drug sensitization by compounds of the present invention, as well as other compounds with similar activity. These cell lines include NIH-OVCAR-3 (ATCC HTB161)., which is commercially available. Other cell lines can be readily developed in accordance with the methods described by Twentyman et al., Br. J. Cancer, 54, 253 (1986). This procedure selects for multidrug-resistant cells by culturing the parental drug sensitive cell line in the continued presence of a cytotoxic drug, for example, doxorubicin.
Drug sensitive cells will perish while multidrug-resistant cells will survive and grow despite the presence of the drug. Eventually, a multidrug-resistant cell population emerges and can be used in an assay system for the detection of agents which can modify the multidrug-resistance. Many cell lines are suitable as parental cell lines from which multidrug-resistant cells can be selected. […]
Equal numbers of cells of an anchorage dependent mammalian cell line are seeded in growth medium (e.g. alpha MEM plus 10% FBS) into a suitable culture vessel, e.g. plastic 96 well tissue culture plates. […] The amount of methylene blue dye in the wells can be measured spectrophotometrically by measuring absorbance at 600 nm using an electronic ELISA plate spectrophotmeter (Minireader II, Dynatech Laboratories, Alexandria, VA). […]

[3] = system: Parental CHO cells (Drug Sensitive); test: Doxorubicin growth inhibition, methylene blue staining method, parental drug-sensitive cells; type: cell-based, Chinese hamster; details: Cricetulus griseus, doxorubicin only, about 72 hours continuous exposure
Procedure: Equal numbers of cells of an anchorage dependent mammalian cell line are seeded in growth medium (e.g. alpha MEM plus 10% FBS) into a suitable culture vessel, e.g. plastic 96 well tissue culture plates. A cytotoxic drug (e.g. doxorubicin) is added to the cells in the dishes at various concentrations ranging between 0 and 100 uM. Following about 72 hours of continuous exposure to the cytotoxic agent, the growth medium is decanted and the cells are washed with a suitable buffer, e.g. phosphate buffered saline (PBS). About 2 ml of a solution of 2% methylene blue (dissolve methylene blue in a solution of about 50% ethanol in water) is added to the cells on the dishes. The dye is allowed to contact the cells for about 2 minutes. Excess dye is washed away with cold water and the plates are air dried. The dye stained cells are then solubilized by adding an equal volume to all wells of a solution of a detergent, e.g. 1% N-lauroyl-sarcosine. The amount of dye remaining in the wells directly correlates witht he number of cells in the well. The amount of methylene blue dye in the wells can be measured spectrophotometrically by measuring absorbance at 600 nm using an electronic ELISA plate spectrophotmeter (Minireader II, Dynatech Laboratories, Alexandria, VA). […]

## C/C=C/C[C@@H](C)[C@@H](O)[C@H]1C(=O)N[C@@H](CC)C(=O)N(C)CC(=O)N(C)[C@@H](CC(C)C)C(=O)N[C@@H](C(C)C)C(=O)N(C)[C@@H](CC)C(=O)N[C@@H](C)C(=O)N[C@H](C)C(=O)N(C)[C@@H](CC(C)C)C(=O)N(C)[C@@H](CC(C)C)C(=O)N(C)[C@@H](C(C)C)C(=O)N1C [6-MeAbu]
[1]
  Nephrotoxicity: lack the nephrotoxic side effects

## C/C=C/C[C@@H](C)[C@@H](O)[C@H]1C(=O)N[C@@H](CC)C(=O)N(C)CC(=O)N(C)[C@@H](CC(C)C)C(=O)N[C@@H](C(C)C)C(=O)N(C)[C@@H](C)C(=O)N[C@@H](C)C(=O)N[C@H](C)C(=O)N(C)[C@@H](CC(C)C)C(=O)N(C)[C@@H](CC(C)C)C(=O)N(C)[C@@H](C(C)C)C(=O)N1C [6-MeAla, Cyclo[-((2S,3R,4R,6E)-3-Hydroxy-4-methyl-2-methylamino-6-octenoyl)-L-2-aminobutyryl-sarcosyl-N-methyl-L-leucyl-Valyl-N-methyl-L-alanyl-L-alanyl-D-alanyl-N-methyl-L-leucyl-N-methyl-L-leucyl-N-methyl-L-valyl]]
[1]
  Nephrotoxicity: lack the nephrotoxic side effects

## COc1cccc2c1C(=O)c1c(O)c3c(c(O)c1C2=O)C[C@@](O)(C(=O)CO)C[C@@H]3O[C@H]1C[C@H](N)[C@H](O)[C@H](C)O1 [Doxorubicin, doxorubicin]
[2]
  IC50: 11.3 ± 0.51 µM
[3]
  IC50: 170 ± 10 nM
